Assay results published in patent US20250019370A1, “L-LYSINE SALT OF 4-CHLORO-5-[4-(2,6-DICHLOROPHENYL)SULFONYLPIPERAZIN-1-YL]-1-BENZOFURAN-2-CARBOXYLIC ACID AND VARIOUS FORMS THEREOF” (ENYO PHARMA, priority 2023, published 2025).

Columns and labels:
[1] = Solubility kinetics in FaSSIF medium; type: physicochemical; conditions: after 24 h; for Soluble fraction: 37° C.; for pH: pH given with the soluble fraction
Protocol: The solubility kinetics of the salt forms as well as the native EYP001 free acid form were determined in FaSSIF and FeSSIF media, and in a pH 4.5 acetate buffer as detailed below: The samples were prepared by adding an excess of each tested bulk (salt or native EYP001) to a given volume of test medium. The suspension was stirred by orbital stirring over 1 hour (in both pH 4.5 acetate buffer and FeSSIF medium) or 24 hours ([…] medium) at 37° C., protected from light. In FaSSIF medium, the soluble concentration was assessed after 24 hours of stirring. […] At each time point, the “supernatant” was isolated and diluted in a solvent mixture allowing its injection into the chromatographic system. The concentration in solution in the test medium was determined by HPLC with external standardization.

[2] = Thermogravimetric analysis (TGA), mass losses upon heating; type: physicochemical
Protocol: Thermogravimetric analysis was performed on a TA Instruments TGA Hi-Res 2950 apparatus equipped with an evolved gas analysis furnace. A sample was placed in an opened aluminium basket and analysed according to the following conditions: […]

[3] = Dynamic Vapor Sorption (DVS) analysis (gas water sorption); type: physicochemical; conditions: for water uptake upon sorption (DVS): 25° C./95% RH; for hygroscopicity (DVS): hygroscopic above 2% mass gain at 25° C./60% RH
Protocol: The dynamic vapor sorption (DVS) analysis (gas water sorption) was performed on a DVS-Intrinsic incubator (SMS Ltd), equipped with DVS-Intrinsic Control Software 1.0. The sample, placed in an aluminium basket holder, was submitted to a full-cycle analysis (sorption followed by desorption cycle) under the following conditions:
The sample was first pre-dried under a stream of dry air until a stabilized sample mass was observed. Then, the relative humidity was increased by 5% increments. At each step, the sample mass was allowed to increase until equilibrium is reached (according to a given dm/dt target), and then a new relative humidity rise occurred. Relative humidity was ramped up to 95%. After equilibration at this point, desorption began in a similar stepwise manner, with sample mass decrease again allowed to stabilize after each incremental humidity decrease.
With both segments of the above-described method, the sample mass recording allowed describing of the whole vapor water sorption/desorption behaviour versus relative humidity.

[4] = Pharmacokinetic study Experiment #4, oral administration in rats; type: in vivo, rat; conditions: 10 mg EqEYP001/Kg
Protocol: In a fourth study (Experiment #4), EYP001, EYP001 L-lysine salt amorphous Form and EYP001 L-lysine salt Form VI in aqueous formulations (0.5% CMC, 0.25% Tween 80, water) were orally administrated at a dose of 10 mg EqEYP001/Kg in 8 male rats for each compound (4 rats on day 1 and 4 rats on day 2 for each compound). Blood samples were taken at 0.25 h, 0.5 h, 1 h, 2 h, 4 h, 6 h, 8 h, 12 h, and 24 h after oral administration.

[5] = Solubility kinetics in FeSSIF medium; type: physicochemical; conditions: for Soluble fraction: 37 ° C.
Protocol: The solubility kinetics of the salt forms as well as the native EYP001 free acid form were determined in FaSSIF and FeSSIF media, and in a pH 4.5 acetate buffer as detailed below: The samples were prepared by adding an excess of each tested bulk (salt or native EYP001) to a given volume of test medium. […] In FaSSIF medium, the soluble concentration was assessed after 24 hours of stirring. […] At each time point, the “supernatant” was isolated and diluted in a solvent mixture allowing its injection into the chromatographic system. The concentration in solution in the test medium was determined by HPLC with external standardization.

[6] = Solubility kinetics in pH 4.5 acetate buffer; type: physicochemical; conditions: 37 ° C., listed as EYP001 L-Lysine salt (Form VI)
Protocol: The solubility kinetics of the salt forms as well as the native EYP001 free acid form were determined in FaSSIF and FeSSIF media, and in a pH 4.5 acetate buffer as detailed below:
The samples were prepared by adding an excess of each tested bulk (salt or native EYP001) to a given volume of test medium. The suspension was stirred by orbital stirring over 1 hour (in both pH 4.5 acetate buffer and FeSSIF medium) or 24 hours (inFaSSIF medium) at 37° C., protected from light.
In pH 4.5 acetate buffer, the soluble concentration was assessed after 0.5 hour and 1 hour of stirring.
At each time point, the “supernatant” was isolated and diluted in a solvent mixture allowing its injection into the chromatographic system. The concentration in solution in the test medium was determined by HPLC with external standardization.

[7] = Pharmacokinetic study Experiment #1, oral administration in rats; type: in vivo, rat; conditions: 50 mg EqEYP001/Kg, male rats, aqueous formulation
Protocol: In a first study (Experiment #1), EYP001, EYP001 Meglumine salt, and EYP001 L-lysine salt Form I in aqueous formulations (0.5% CMC, 0.25% Tween 80, water) were orally administrated at a dose of 50 mg EqEYP001/Kg in 3 male rats for each compound. Blood samples were taken at 0.25 h, 0.5 h, 1 h, 2 h, 4 h, 6 h, 8 h, 12 h, and 24 h after oral administration.

[8] = listed as EYP001 L-lysine salt (form VI)
[9] = male rats, aqueous formulation, listed as EYP001 L-lysine salt (Form VI)
[10] = male rats, versus EYP001 free acid, listed as EYP001 L-lysine salt (Form VI)

In the case of `NC1CCCCC1.O=C(O)c1cc2c(Cl)c(N3CCN(S(=O)(=O)c4c(Cl)cccc4Cl)CC3)ccc2o1`, the Soluble fraction [1] is reported as 0.19 mg/mL of EYP001 and the pH [1] is reported as 6.5.
For `O=C(O)c1cc2c(Cl)c(N3CCN(S(=O)(=O)c4c(Cl)cccc4Cl)CC3)ccc2o1.c1ccc(CCNCc2ccccc2)cc1` [EYP001 Benethamine salt (Polymorph I)], the Soluble fraction [1] was 0.01 mg/mL of EYP001 and the pH [1] was 6.6.
In the case of `O=C(O)c1cc2c(Cl)c(N3CCN(S(=O)(=O)c4c(Cl)cccc4Cl)CC3)ccc2o1.c1ccc(CCNCc2ccccc2)cc1` [EYP001 Benethamine salt (Polymorph II)], the Soluble fraction [1] is reported as 0.01 mg/mL of EYP001 and the pH [1] is reported as 6.5.
With `NCCCC[C@H](N)C(=O)O.O=C(O)c1cc2c(Cl)c(N3CCN(S(=O)(=O)c4c(Cl)cccc4Cl)CC3)ccc2o1` [EYP001 L-lysine salt Form VI, L-lysine salt of 4-chloro-5-[4-(2,6-dichlorophenyl)sulfonylpiperazin-1-yl]-1-benzofuran-2-carboxylic acid] the “Start (° C.)” value ([2]; TGA step 1) was 223 °C, the “Stop (° C.)” value ([2]; TGA step 1) was 275 °C and the “TEndset (° C.)” value ([2]; TGA step 1) was 262 °C. The “TOnset (° C.)” value ([2]; TGA step 1) was 251 °C, the “Δm (%) mass loss upon heating” value ([2]; TGA step 1) was 11.2% and the “Start (° C.)” value ([2]; TGA step 2) was 275 °C. For the same molecule, the “Stop (° C.)” value ([2]; TGA step 2) was 480 °C, the “TEndset (° C.)” value ([2]; TGA step 2) was 344 °C and the “TOnset (° C.)” value ([2]; TGA step 2) was 313 °C. The “Δm (%) mass loss upon heating” value ([2]; TGA step 2) was 58.4%, the “onset temperature of thermal decomposition (TGA)” value ([2]; heater ramp 10 ° C./min, nitrogen, listed as EYP001 L-lysine salt (Form VI)) was 251 °C and the “mass loss before the beginning of thermal decomposition (TGA)” value ([2]; upon heating, listed as EYP001 L-lysine salt (Form VI)) was “no mass loss”. For the same molecule, the “mass loss during preliminary drying phase” value ([3]; 25° C./0% RH before sorption, listed as EYP001 L-lysine salt (Form VI)) was “no significant mass loss”, the “water uptake (DVS)” value ([3]; 25° C./60% RH, listed as EYP001 L-lysine salt form VI) was 0.07% and the “water uptake upon sorption (DVS)” value ([3]; listed as EYP001 L-lysine salt (Form VI)) was 0.4%. The “water uptake upon sorption (DVS)” value [3, 8] was 0.4%, the maximum hysteresis sorption/desorption ([3]; 25° C., listed as EYP001 L-lysine salt (Form VI)) was 0.15% and the “hygroscopicity (DVS)” value [3, 8] was “non-hygroscopic”. The “hygroscopicity (DVS)” value ([3]; listed as EYP001 L-lysine salt form VI) was “non-hygroscopic”, the “Mean AUClast” value [4, 9] was 4612.3 ng·h/mL and the “Mean Cmax” value [4, 9] was 2399.2 ng/mL. The “% increase/EYP001 (AUClast)” value [4, 10] was “+36.6%”, the “% increase/EYP001 (Cmax)” value [4, 10] was “+66.1%” and the “C max compared to EYP001 free acid” value ([4]; rat) was “higher C max”. The “exposure (AUC0-24) compared to EYP001 free acid” value ([4]; rat) was “superior exposure”, the “variability of the C max (CV %) compared to EYP001 free acid” value ([4]; rat) was “strongly reduced” and the “variability of the exposure (CV %) compared to EYP001 free acid” value ([4]; rat) was “strongly reduced”. The Soluble fraction ([5]; after 0.5 h, listed as EYP001 L-Lysine salt (Form VI)) was 0.50 mg/mL of EYP001, the Soluble fraction ([5]; after 1 h, listed as EYP001 L-Lysine salt (Form VI)) was 0.75 mg/mL of EYP001 and the Soluble fraction ([5]; after 2 h, listed as EYP001 L-Lysine salt (Form VI)) was 0.90 mg/mL of EYP001. The Soluble fraction ([5]; after 24 h, listed as EYP001 L-Lysine salt (Form VI)) was 1.18 mg/mL of EYP001, the pH ([5]; pH given with the soluble fraction, after 2 h) was “(pH = 4.9)” and the pH ([5]; pH printed with the soluble fraction, after 0.5 h, listed as EYP001 L-Lysine salt (Form VI)) was “(pH = 5.0)”. The pH ([5]; pH printed with the soluble fraction, after 1 h, listed as EYP001 L-Lysine salt (Form VI)) was “(pH = 4.9)”, the pH ([5]; pH printed with the soluble fraction, after 24 h, listed as EYP001 L-Lysine salt (Form VI)) was “(pH = 4.9)” and the Soluble fraction ([6]; after 0.5 h) was 0.035 mg/mL of EYP001. For the same molecule, the Soluble fraction ([6]; after 1 h) was 0.033 mg/mL of EYP001.
In the case of `CNCC(O)C(O)C(O)C(O)CO.O=C(O)c1cc2c(Cl)c(N3CCN(S(=O)(=O)c4c(Cl)cccc4Cl)CC3)ccc2o1` [EYP001 Meglumine salt, reference compound], the “Mean AUC0-24” value [7] is reported as 33076 ng·h/mL and the “Mean Cmax” value [7] is reported as 5372 ng/mL.
With `C1COCCN1.O=C(O)c1cc2c(Cl)c(N3CCN(S(=O)(=O)c4c(Cl)cccc4Cl)CC3)ccc2o1` [EYP001 Morpholine salt, reference compound] the Soluble fraction [1] was 0.22 mg/mL of EYP001 and the pH [1] was 6.5.
